How the values were obtained:
Assay in all cases: KINOMEscan competitive binding, whole panel
[1] = biological target: T1, panel of 203 kinases (Homo sapiens, UniProt O95819); details: 10 µM, n=1; kinase MAP4K4; read-out: Percent inhibition MAP4K4
T1 construct: purchased DiscoverX (KINOMEscan)
Outline: (§1)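 Kinases were expressed as T7 bacteriophage fusions, and test compounds competed with immobilized ATP-site probe ligands for binding. Kinase remaining bound to the solid-support probe was quantified, and values are given as percentage inhibition.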

[2] = biological target: T2, panel of 203 kinases (Homo sapiens, UniProt P15056); details: 10 µM, n=1; kinase BRAF; read-out: Percent inhibition BRAF
T2 construct: purchased DiscoverX (KINOMEscan)
T2 sequence (P15056 whole entry): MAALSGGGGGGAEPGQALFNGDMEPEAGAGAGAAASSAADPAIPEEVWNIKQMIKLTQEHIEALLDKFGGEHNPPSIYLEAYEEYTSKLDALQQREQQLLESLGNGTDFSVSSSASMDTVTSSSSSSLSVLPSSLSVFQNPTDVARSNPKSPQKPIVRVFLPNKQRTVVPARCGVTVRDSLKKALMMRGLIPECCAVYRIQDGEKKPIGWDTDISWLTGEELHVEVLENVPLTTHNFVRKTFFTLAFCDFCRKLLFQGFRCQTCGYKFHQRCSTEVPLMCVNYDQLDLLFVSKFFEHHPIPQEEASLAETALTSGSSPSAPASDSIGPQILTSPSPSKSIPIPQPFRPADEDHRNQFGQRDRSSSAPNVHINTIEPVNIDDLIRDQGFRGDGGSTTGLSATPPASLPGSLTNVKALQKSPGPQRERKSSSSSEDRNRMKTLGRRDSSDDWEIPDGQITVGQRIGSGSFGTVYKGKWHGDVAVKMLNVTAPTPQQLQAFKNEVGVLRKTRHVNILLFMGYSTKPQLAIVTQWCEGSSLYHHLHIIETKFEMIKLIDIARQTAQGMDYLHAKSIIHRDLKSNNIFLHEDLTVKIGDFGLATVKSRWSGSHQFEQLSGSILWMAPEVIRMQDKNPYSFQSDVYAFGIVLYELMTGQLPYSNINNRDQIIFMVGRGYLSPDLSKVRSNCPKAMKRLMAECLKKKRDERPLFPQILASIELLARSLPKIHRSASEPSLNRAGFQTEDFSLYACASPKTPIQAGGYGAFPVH
Outline: as §1

[3] = biological target: T3, panel of 203 kinases (Homo sapiens, UniProt P53671); details: 10 µM, n=1; kinase LIMK2; read-out: Percent inhibition LIMK2
T3 construct: purchased DiscoverX (KINOMEscan)
T3 sequence (P53671 whole entry): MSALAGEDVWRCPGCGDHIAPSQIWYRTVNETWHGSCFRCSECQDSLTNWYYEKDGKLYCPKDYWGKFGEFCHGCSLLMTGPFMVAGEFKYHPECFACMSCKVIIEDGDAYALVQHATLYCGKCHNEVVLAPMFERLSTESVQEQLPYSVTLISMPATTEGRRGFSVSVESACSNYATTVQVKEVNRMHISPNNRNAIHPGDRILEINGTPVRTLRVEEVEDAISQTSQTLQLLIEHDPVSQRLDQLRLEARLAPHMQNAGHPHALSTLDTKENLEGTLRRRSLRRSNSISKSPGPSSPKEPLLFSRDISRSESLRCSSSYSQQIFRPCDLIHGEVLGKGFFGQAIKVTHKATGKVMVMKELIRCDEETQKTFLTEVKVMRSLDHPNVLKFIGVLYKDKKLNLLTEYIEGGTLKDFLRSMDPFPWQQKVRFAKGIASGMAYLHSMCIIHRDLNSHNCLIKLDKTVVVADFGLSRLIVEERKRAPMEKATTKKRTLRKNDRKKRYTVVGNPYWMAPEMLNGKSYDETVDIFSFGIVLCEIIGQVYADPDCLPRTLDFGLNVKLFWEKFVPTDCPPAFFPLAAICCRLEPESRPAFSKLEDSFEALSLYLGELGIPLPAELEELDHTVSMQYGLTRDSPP
Outline: as §1

[4] = biological target: T4, panel of 203 kinases (Homo sapiens, UniProt P54646); details: 10 µM, n=1; kinase AMPK-alpha2; read-out: Percent inhibition AMPK-alpha2
T4 construct: purchased DiscoverX (KINOMEscan)
T4 sequence (P54646 whole entry): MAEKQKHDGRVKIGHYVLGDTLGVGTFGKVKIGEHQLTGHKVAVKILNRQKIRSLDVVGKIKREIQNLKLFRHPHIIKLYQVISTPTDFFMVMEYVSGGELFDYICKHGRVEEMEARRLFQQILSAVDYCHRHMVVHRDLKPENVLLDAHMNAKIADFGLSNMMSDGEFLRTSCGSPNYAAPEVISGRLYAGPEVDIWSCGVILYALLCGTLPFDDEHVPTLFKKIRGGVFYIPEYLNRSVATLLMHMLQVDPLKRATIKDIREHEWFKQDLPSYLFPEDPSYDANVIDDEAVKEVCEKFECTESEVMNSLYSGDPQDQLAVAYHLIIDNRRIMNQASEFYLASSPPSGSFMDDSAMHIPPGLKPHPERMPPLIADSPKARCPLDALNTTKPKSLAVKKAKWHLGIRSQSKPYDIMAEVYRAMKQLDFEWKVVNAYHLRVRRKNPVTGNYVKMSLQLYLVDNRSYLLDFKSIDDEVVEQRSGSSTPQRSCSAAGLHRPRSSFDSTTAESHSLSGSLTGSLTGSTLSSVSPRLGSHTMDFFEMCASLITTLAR
Outline: as §1

[5] = biological target: T5, panel of 203 kinases (Homo sapiens, UniProt Q9HC98); details: 10 µM, n=1; kinase NEK6; read-out: Percent inhibition NEK6
T5 construct: purchased DiscoverX (KINOMEscan)
T5 sequence (Q9HC98 whole entry): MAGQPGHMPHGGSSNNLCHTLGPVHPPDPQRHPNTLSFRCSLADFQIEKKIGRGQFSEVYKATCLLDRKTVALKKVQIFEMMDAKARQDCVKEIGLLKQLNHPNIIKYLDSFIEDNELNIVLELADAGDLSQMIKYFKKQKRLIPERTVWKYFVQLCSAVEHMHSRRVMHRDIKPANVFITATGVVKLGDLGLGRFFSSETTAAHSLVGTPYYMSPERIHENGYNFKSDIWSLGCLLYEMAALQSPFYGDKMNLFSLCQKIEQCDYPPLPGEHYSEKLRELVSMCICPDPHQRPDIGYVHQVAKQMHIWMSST
Outline: as §1

[6] = biological target: T6, panel of 203 kinases (Homo sapiens, UniProt Q8NI60); details: 10 µM, n=1; kinase ADCK3; read-out: Percent inhibition ADCK3
T6 construct: purchased DiscoverX (KINOMEscan)
T6 sequence (Q8NI60 163-647): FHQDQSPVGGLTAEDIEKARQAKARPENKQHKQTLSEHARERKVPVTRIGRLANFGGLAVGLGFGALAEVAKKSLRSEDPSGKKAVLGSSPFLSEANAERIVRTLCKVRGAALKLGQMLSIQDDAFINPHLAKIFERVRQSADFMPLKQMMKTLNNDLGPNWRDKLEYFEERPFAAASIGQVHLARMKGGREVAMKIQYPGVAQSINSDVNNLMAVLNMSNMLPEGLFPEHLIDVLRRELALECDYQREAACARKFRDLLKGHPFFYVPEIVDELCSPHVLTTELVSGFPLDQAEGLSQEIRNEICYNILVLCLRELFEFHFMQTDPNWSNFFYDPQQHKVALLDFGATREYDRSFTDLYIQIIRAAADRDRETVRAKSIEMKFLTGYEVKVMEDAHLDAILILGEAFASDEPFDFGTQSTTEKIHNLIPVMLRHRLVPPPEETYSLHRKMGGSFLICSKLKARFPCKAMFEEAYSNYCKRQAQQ
Outline: as §1

[7] = biological target: T7, panel of 203 kinases (Homo sapiens, UniProt O15146); details: 10 µM, n=1; kinase MUSK; read-out: Percent inhibition MUSK
T7 construct: purchased DiscoverX (KINOMEscan)
T7 sequence (O15146 24-869): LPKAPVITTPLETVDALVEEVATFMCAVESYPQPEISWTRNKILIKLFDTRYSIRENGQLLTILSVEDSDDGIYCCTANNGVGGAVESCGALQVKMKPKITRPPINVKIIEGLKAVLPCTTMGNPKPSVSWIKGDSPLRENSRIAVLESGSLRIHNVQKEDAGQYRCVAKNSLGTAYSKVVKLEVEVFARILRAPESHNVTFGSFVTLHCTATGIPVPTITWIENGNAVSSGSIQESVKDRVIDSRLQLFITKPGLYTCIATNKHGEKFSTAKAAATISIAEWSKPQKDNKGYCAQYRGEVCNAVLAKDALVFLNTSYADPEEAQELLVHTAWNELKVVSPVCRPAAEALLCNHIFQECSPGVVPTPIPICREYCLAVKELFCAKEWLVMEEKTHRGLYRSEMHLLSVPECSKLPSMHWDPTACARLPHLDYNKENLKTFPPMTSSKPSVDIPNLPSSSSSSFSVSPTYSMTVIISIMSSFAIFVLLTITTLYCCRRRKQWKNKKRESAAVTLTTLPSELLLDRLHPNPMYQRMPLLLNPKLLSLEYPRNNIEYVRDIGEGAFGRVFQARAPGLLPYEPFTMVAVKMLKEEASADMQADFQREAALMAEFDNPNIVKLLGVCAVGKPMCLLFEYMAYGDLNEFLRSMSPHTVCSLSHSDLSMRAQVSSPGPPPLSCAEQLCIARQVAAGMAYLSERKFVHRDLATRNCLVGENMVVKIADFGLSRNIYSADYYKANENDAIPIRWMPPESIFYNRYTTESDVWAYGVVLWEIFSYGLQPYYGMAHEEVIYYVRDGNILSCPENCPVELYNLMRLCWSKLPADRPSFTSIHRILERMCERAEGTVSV
Outline: as §1

[8] = biological target: T8, panel of 203 kinases (Homo sapiens, UniProt Q96RR4); details: 10 µM, n=1; kinase CAMKK2; read-out: Percent inhibition CAMKK2
T8 construct: purchased DiscoverX (KINOMEscan)
T8 sequence (Q96RR4 whole entry): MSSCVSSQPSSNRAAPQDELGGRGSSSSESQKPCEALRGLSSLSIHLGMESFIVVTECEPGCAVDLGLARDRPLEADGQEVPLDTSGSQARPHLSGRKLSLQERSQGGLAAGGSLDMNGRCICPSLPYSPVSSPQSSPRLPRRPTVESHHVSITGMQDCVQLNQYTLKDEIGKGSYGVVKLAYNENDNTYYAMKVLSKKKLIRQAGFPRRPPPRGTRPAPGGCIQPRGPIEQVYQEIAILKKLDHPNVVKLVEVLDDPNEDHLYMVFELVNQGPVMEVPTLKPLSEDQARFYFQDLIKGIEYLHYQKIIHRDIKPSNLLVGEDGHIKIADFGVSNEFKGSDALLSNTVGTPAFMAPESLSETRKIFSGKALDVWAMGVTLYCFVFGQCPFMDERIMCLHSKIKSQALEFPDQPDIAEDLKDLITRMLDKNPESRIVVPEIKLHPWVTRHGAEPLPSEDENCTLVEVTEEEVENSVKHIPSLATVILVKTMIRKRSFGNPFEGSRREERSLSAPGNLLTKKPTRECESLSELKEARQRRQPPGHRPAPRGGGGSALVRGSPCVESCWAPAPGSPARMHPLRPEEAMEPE
Outline: as §1

[9] = biological target: T9, panel of 203 kinases (Homo sapiens, UniProt Q04771); details: 10 µM, n=1; kinase ACVR1; read-out: Percent inhibition ACVR1
T9 construct: purchased DiscoverX (KINOMEscan)
T9 sequence (Q04771 21-509): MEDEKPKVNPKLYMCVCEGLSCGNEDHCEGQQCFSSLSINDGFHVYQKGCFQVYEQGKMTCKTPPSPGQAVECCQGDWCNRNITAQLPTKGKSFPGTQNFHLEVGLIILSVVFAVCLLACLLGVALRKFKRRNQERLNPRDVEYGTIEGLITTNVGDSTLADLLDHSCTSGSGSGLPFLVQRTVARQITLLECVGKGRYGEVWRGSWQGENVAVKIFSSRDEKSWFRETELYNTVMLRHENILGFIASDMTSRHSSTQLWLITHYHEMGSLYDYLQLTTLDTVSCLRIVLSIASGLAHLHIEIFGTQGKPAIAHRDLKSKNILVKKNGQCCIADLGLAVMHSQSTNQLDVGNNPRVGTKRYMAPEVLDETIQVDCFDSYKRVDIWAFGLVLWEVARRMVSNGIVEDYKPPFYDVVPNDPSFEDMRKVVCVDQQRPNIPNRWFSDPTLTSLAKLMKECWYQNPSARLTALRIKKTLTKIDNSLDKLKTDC
Outline: as §1

T1 sequence (O95819 whole entry): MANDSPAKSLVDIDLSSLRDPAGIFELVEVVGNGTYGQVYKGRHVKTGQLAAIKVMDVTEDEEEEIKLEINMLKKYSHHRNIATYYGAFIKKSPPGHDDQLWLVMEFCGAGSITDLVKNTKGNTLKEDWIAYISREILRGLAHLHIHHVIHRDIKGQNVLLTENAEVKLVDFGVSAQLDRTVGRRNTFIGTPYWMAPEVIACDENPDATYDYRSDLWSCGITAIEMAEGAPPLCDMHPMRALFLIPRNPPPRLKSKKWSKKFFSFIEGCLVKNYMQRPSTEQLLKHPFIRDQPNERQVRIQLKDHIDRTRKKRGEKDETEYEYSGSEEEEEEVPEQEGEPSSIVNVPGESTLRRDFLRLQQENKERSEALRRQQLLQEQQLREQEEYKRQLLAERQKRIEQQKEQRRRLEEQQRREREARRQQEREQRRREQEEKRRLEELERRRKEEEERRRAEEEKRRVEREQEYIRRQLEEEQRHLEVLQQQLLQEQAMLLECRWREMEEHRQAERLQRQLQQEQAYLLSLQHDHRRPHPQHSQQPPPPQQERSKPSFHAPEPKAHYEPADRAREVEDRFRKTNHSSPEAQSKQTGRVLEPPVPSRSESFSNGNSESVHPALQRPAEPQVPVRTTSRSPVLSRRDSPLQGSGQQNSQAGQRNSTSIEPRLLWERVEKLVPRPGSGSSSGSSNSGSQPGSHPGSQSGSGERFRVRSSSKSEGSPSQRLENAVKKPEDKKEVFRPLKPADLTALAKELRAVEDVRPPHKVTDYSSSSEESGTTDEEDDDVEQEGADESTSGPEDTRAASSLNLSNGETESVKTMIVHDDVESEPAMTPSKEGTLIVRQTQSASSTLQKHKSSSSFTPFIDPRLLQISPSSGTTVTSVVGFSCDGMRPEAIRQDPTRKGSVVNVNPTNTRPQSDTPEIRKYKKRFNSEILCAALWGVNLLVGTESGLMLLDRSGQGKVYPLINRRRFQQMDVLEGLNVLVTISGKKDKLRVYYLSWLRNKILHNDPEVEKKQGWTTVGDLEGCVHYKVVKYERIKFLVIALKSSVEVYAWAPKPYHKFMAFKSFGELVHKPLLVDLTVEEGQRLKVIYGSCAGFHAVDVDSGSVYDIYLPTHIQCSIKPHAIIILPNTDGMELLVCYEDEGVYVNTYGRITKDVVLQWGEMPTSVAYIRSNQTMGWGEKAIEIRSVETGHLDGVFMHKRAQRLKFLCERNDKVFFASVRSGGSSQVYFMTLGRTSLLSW

SMILES | inhibition at 10 µM [1] [%] | inhibition at 10 µM [2] [%] | inhibition at 10 µM [3] [%] | inhibition at 10 µM [4] [%] | inhibition at 10 µM [5] [%] | inhibition at 10 µM [6] [%] | inhibition at 10 µM [7] [%] | inhibition at 10 µM [8] [%] | inhibition at 10 µM [9] [%]
CN1CCN(c2ccc(Nc3nccc(-c4cnn5ncccc45)n3)cc2C#N)CC1 [Compound 1] | 80 | 0 | 100 | 81.8 | 100 | 93.7 | 98.8 | 98 | 98.8
COc1ccc(Nc2nccc(-c3cnn4ncccc34)n2)cc1 [Compound 2] | 0 | 99.6 | 88 | 0 | 100 | 99.5 | 74.8 | 96.3 | 92.1
Cc1ccc(O)cc1Nc1ccnc(Nc2cccc(C(N)=O)c2)n1 [Compound 3] | 98.2 | 0 | 96.6 | 0 | 0 | 0 | 0 | 0 | 99.7
Cc1ccc(O)cc1N(C)c1ccnc(Nc2cccc(S(N)(=O)=O)c2)n1 [Compound 4] | 98 | 0 | 96 | 0 | 0 | 91.1 | 0 | 0 | 99.9
Fc1cccc(COc2ccc(Nc3ncnc4c3CN(CCN3CCOCC3)CC4)cc2Cl)c1 [Compound 6] | 0 | 0 | 0 | 0 | 0 | 0 | 0 | 0 | 0
COc1cc(Nc2nccc(-c3sc(N)nc3-c3cccc(NC(=O)c4c(F)cccc4F)c3)n2)cc(OC)c1OC [Compound 7] | 99.3 | 100 | 100 | 100 | 97.4 | 100 | 97.2 | 0 | 0
C[C@@H](Oc1cc(-c2cnc3ccccn23)sc1C(N)=O)c1ccccc1Cl [Compound 8] | 0 | 0 | 0 | 0 | 0 | 0 | 0 | 81.2 | 0
c1ccc(COc2cccc(-c3ccnc4[nH]ccc34)c2)cc1 [Compound 9] | 0 | 0 | 0 | 0 | 0 | 0 | 0 | 0 | 0
Clc1ccc(Nc2ncc(-c3ccccc3)s2)cc1 [Compound 10] | 0 | 0 | 0 | 0 | 0 | 0 | 0 | 0 | 0
Nc1ncc2c(-c3ccncc3)c[nH]c2n1 [Compound 11] | 84.2 | 0 | 0 | 0 | 0 | 0 | 93.9 | 0 | 66.2

— publication PMC9927415, “Tyrosine Kinase Inhibitors Display Potent Activity against Cryptosporidium parvum” (Microbiology Spectrum, 2022)
